From BindingDB's records for doi:10.1016/s0960-894x(99)00041-4 (1999)
Numbered stars: 1 amine (or outer) side, 2 acyl side, 3 side chain; on linkers, the order of the positions; unused ones are H or OH. Bridge positions count the residues as written; N and C are the ends. Square brackets hold non-standard residues; d marks the D form. Peptide text beside a SMILES is read from it. X1 = O=C([C@@]1(N[*:1])CCc2ccccc2C1)[*:2]; Atc(2S) = N[C@@]1(C(=O)O)CCc2ccccc2C1; Mpa = O=C(O)CCS; Sar = CNCC(=O)O

Biological target: Oxytocin receptor (Cavia porcellus)
Assay: Compound was evaluated for its dissociation constant (Kd) to guinea pig myometrial Oxytocin receptor

Row | Kd [nM] | Compound
1 | 370 | CC[C@H](C)[C@@H]1NC(=O)[C@@]2(CCc3ccccc3C2)NC(=O)CCSSC[C@@H](C(=O)N(C)CC(=O)N[C@@H](CCCN=C(N)N)C(=O)NCC(N)=O)NC(=O)[C@H](CC(N)=O)NC(=O)[C@H](CCC(N)=O)NC1=O ([Mpa][Atc(2S)]IQNC[Sar]RG-NH2; disulfide 1-6)
2 | 1920 | CC[C@H](C)[C@@H]1NC(=O)[C@]2(CCc3ccccc3C2)NC(=O)CCSSC[C@@H](C(=O)N(C)CC(=O)N[C@@H](CCCN=C(N)N)C(=O)NCC(N)=O)NC(=O)[C@H](CC(N)=O)NC(=O)[C@H](CCC(N)=O)NC1=O ([Mpa][X1]IQNC[Sar]RG-NH2; disulfide 1-6)
3 | 38 | CC[C@H](C)[C@@H]1NC(=O)[C@@H](Cc2c[nH]c3ccccc23)NC(=O)CCSSC[C@@H](C(=O)N(C)CC(=O)N[C@@H](CCCNC(=N)N)C(=O)NCC(N)=O)NC(=O)[C@H](CC(N)=O)NC(=O)[C@H](CCC(N)=O)NC1=O [Mpa-D-Trp-lle-Gln-Asn-Cys-Sar-Arg-Gly-NH2]
